Data on 18 compounds can be found in US7906551B2 (Rottapharm S.p.A., priority 2006, dated 2011).

Usually IC50 stands for the concentration that gives 50% inhibition.

The target in assay [1] is T1, COX-1 (Mus musculus, UniProt P22437).
T1 construct: endogenous in cells; host or cells: J774 murine monocyte/macrophage cell line
T1 sequence (P22437 27-602): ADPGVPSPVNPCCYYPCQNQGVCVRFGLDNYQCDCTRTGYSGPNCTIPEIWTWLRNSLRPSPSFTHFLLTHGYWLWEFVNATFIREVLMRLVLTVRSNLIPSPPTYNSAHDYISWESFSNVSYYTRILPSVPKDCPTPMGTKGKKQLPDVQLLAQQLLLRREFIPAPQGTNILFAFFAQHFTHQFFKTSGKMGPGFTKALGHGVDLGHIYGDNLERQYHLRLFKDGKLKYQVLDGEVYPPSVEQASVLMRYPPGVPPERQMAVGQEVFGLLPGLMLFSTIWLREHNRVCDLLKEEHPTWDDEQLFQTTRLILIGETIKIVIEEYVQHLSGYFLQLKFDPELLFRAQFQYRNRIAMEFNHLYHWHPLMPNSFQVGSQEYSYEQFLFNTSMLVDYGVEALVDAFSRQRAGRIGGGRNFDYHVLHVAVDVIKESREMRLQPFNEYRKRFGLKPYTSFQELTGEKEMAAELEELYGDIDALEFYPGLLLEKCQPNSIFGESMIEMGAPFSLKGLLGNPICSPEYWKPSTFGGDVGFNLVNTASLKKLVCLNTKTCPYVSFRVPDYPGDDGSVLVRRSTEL
The experiment in a line: Assessment of COX-1 activity in J774 cells (arachidonic acid, PGE2 radioimmunoassay). It is filed as cell-based, murine. As to the method: Stock solutions of the reference standard or of the test compounds were prepared in dimethyl sulphoxide, and an equivalent amount of dimethyl sulphoxide was included in control samples. At the end of the incubation the supernatants were collected for the measurement of PGE2 by radioimmunoassay.
(§1) Analysis. Throughout the time the experiments lasted, triplicate wells were used for the various conditions of treatment. Results are expressed as the mean, for 3 experiments, of the % inhibition of PGE2 production by test compounds with respect to control samples. Data fit was obtained using the sigmoidal dose-response equation (variable slope). The IC50 were calculated by GraphPad Instat program (GraphPad software).

The target in assay [2] is T2, COX-2 (Mus musculus, UniProt Q05769).
T2 construct: lipopolysaccharide (LPS, 10 μg/mL) to induce COX-2; endogenous in cells; host or cells: J774 murine monocyte/macrophage cell line, LPS-stimulated
T2 sequence (Q05769 18-604): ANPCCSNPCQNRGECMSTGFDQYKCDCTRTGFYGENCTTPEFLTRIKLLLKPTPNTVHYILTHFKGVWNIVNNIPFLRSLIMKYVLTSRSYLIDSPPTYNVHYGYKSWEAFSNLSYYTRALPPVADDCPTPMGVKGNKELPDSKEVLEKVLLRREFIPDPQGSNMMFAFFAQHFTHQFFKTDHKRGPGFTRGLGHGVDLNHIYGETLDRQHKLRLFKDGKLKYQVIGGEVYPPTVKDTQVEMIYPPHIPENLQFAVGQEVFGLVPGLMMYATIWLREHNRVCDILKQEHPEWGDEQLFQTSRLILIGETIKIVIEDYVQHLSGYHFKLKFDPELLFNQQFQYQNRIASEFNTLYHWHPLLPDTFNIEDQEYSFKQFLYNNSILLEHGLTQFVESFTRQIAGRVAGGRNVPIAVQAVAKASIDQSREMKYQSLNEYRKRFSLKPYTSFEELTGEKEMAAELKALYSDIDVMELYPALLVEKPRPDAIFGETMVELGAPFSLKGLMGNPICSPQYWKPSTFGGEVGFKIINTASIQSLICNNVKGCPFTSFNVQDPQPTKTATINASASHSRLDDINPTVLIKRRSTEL
The assay is described as follows: Assessment of COX-2 activity in LPS-stimulated J774 cells (PGE2 radioimmunoassay). In kind it is cell-based, murine. Particulars: for IC50: read-out: COX-2 IC50; for COX-1/COX-2 Selectivity Index (IC50 ratio): Table 6, Formula Ib. The procedure: Cells were stimulated for 24 h with E. coli lipopolysaccharide (LPS, 10 μg/mL) to induce COX-2, in the absence or presence of test compounds, at the concentrations previously reported. The supernatants were collected for the measurement of PGE2 by radioimmunoassay.
as §1

In assay [3] the test system is rat model of hyperalgesia induced by carragenine. The experiment in a line: Paw pressure test, hyperalgesia induced by carragenine. It is filed as in vivo. Particulars: 20 mg/Kg. The procedure:
(§2) Male Swiss albino mice (23-25 g) and Sprague Dawley or Wistar rats (150-200 g) were used. The animals were fed a standard laboratory diet and tap water ad libitum and kept at 23±1° C. with a 12 h light/dark cycle, light on at 7 a.m.
The nociceptive threshold in the rat was determined with an analgesimeter, according to the method described by Leighton et al, G. E.; Br. J. Pharmacol. 1988, 93, 553-560. Threshold pressure was measured before and 30, 60 and 120 min after treatment. An arbitrary cut-off value of 250 g was adopted. In order to induce an inflammatory process in the rat paw carrageenan (0.1 ml, 1%) was administered i.p. 4 h before test.

Assay [4] concerns rat model of edema induced by carragenine. The experiment in a line: Carrageenan-induced paw edema. It is filed as in vivo. Particulars: 1 h, Table 10, 60 min, 20 mg/Kg, read-out: Edema inhibition 60 min, MPE. The procedure:
as §2
Rats paw volumes were measured using a plethysmometer. Rats received the investigated compounds 4 hours after a 0.1-ml injection of 1.0% carrageenan in the right hind paw. Five hours after the injection of carrageenan (i.e. 1 hour after the administration of the investigated compound), the paw volume of the right hind paw was measured and compared with saline/carrageenan-treated controls. Results are reported as maximum percent effect (MPE), see below for detailed explanation.
For orientation: Carrageenan injected into the paw causes an acute inflammation.

[5] abbreviates: 0.5 h, Table 10, 30 min, read-out: Analgesia 30 min MPE.
Where [6] appears, read: 1 h, Table 10, 60 min, read-out: Analgesia 60 min MPE.

Read-outs that look alike come from different tables or passages of the source.

As to `Cc1c(CC(=O)N(C)Cc2ccccc2)cc(-c2ccc(S(C)(=O)=O)cc2)n1-c1ccc(C(F)(F)F)cc1` [Example 19, N-Benzyl-N-methyl-[2-methyl-5-(4-methylsulphonyl)phenyl-1-(4-trifluoromethyl)phenyl-1H-pyrrol-3-yl]acetamide], the IC50 was above 100 µM in assay [1] (Table 8, Formula I-c) and 0.47 µM in assay [2] (Table 8, Formula I-c).

Take `COCCc1cc(-c2ccc(S(C)(=O)=O)cc2)n(-c2ccc(C(F)(F)F)cc2)c1C` [Example 26, [2-Methyl-5-(4-methylsulphonyl)phenyl-3-(2-methoxyethyl)-1-(4-trifluoromethyl)phenyl]-1H-pyrrole]: the half-maximal inhibitory concentration (IC50) in assay [1] (Table 9, Formula I-d) was above 100 µM; in assay [2] (Table 9, Formula I-d), 0.049 µM.

With `CCNC(=O)Cc1cc(-c2ccc(S(C)(=O)=O)cc2)n(-c2ccc(C(F)(F)F)cc2)c1C` [Example 18, N-Ethyl-[2-methyl-5-(4-methylsulphonyl)phenyl-1-(4-trifluoromethyl)phenyl-1H-pyrrol-3-yl]acetamide], the concentration for half-maximal inhibition (IC50) was above 100 µM in assay [1] (Table 8, Formula I-c) and 0.19 µM in assay [2] (Table 8, Formula I-c).

For `Cc1c(CCOC(=O)c2cccs2)cc(-c2ccc(S(C)(=O)=O)cc2)n1-c1ccc(F)cc1` [Example 34, 2-(1-(4-fluorophenyl)-2-methyl-5-(4-methylsulphonyl)phenyl-1H-pyrrol-3-yl)ethyl 2-tiophencarboxylate], the IC50 in assay [1] (Table 11, Formula I-e) was above 100 µM. In assay [2], the “COX-2 % of inhibition at 1.10^−5 M” value was determined as 69%.

On to `CCCOCCc1cc(-c2ccc(S(C)(=O)=O)cc2)n(-c2ccc(F)cc2)c1C` [Example 25, [1-(4-Fluoro)phenyl-2-methyl-5-(4-methylsulphonyl)phenyl-3-(2-n-propyloxyethyl)]-1H-pyrrole], for which the inhibition in vivo at 20 mg/kg in assay [3] (setting [5]) worked out at 53%; in assay [3] (setting [6]), 70%; in assay [4] it was 41%.

For the compound `CCCC(=O)OCCc1cc(-c2ccc(S(C)(=O)=O)cc2)n(-c2ccc(F)cc2)c1C` [Example 30, 2-(1-(4-fluorophenyl)-2-methyl-5-(4-methylsulphonyl)phenyl-1H-pyrrol-3-yl)ethyl butanoate], in assay [1] (Table 11, Formula I-e), the IC50 was above 100 µM. Further, the “COX-2 % of inhibition at 1.10^−5 M” value in assay [2] is reported as 86%.

For `CCOC(=O)C(O)c1cc(-c2ccc(S(C)(=O)=O)cc2)n(-c2cccc(F)c2)c1C` (single isomer, unassigned; (-)) [Example 9b, (−)-Ethyl[2-hydroxy-2-[1-(3-fluoro)phenyl-2-methyl-5-(4-methylsulphonyl)phenyl-1H-pyrrol-3-yl]]acetate], the “COX-1/COX-2 Selectivity Index (IC50 ratio)” value in assay [2] was above 650.

As to `Cc1c(CCOC(=O)c2ccccc2)cc(-c2ccc(S(C)(=O)=O)cc2)n1-c1ccc(F)cc1` [Example 31, 2-(1-(4-fluorophenyl)-2-methyl-5-(4-methylsulphonyl)phenyl-1H-pyrrol-3-yl)ethyl benzoate], the IC50 in assay [1] (Table 11, Formula I-e) was above 100 µM. The “COX-2 % of inhibition at 1.10^−5 M” value in assay [2] amounted to 76%.

Turning to `Cc1c(CC(=O)N(C)Cc2ccccc2)cc(-c2ccc(S(C)(=O)=O)cc2)n1-c1ccccc1` [Example 16, N-Benzyl-N-methyl-[2-methyl-5-(4-methylsulphonyl)phenyl-1-phenyl-1H-pyrrol-3-yl]acetamide], the concentration for half-maximal inhibition (IC50) was above 100 µM in assay [1] (Table 8, Formula I-c) and 0.17 µM in assay [2] (Table 8, Formula I-c).

On to `CCNC(=O)Cc1cc(-c2ccc(S(C)(=O)=O)cc2)n(-c2ccccc2)c1C` [Example 14, N-Ethyl-[2-methyl-5-(4-methylsulphonyl)phenyl-1-phenyl-1H-pyrrol-3-yl]acetamide], for which the 50% inhibitory concentration (IC50) in assay [1] (Table 8, Formula I-c) is above 100 µM; in assay [2] (Table 8, Formula I-c) it was 0.35 µM.

Consider `CNC(=O)Cc1cc(-c2ccc(S(C)(=O)=O)cc2)n(-c2ccc(C(F)(F)F)cc2)c1C` [Example 17, N-Methyl-[2-methyl-5-(4-methylsulphonyl)phenyl-1-(4-trifluoromethyl)phenyl-1H-pyrrol-3-yl]acetamide], for which the half-maximal inhibitory concentration (IC50) in assay [1] (Table 8, Formula I-c) is above 100 µM; in assay [2] (Table 8, Formula I-c), 0.09 µM.

Take `CCC(=O)OCCc1cc(-c2ccc(S(C)(=O)=O)cc2)n(-c2ccc(F)cc2)c1C` [Example 29, 2-(1-(4-Fluorophenyl)-2-methyl-5-(4-methylsulphonyl)phenyl-1H-pyrrol-3-yl)ethyl propionate]: the half-inhibitory concentration (IC50) in assay [1] (Table 11, Formula I-e) was above 100 µM. For the same compound, the “COX-2 % of inhibition at 1.10^−5 M” value in assay [2] was 97%.

Consider `CCOC(=O)C(O)c1cc(-c2ccc(S(C)(=O)=O)cc2)n(-c2cccc(F)c2)c1C` (single isomer, unassigned; (+)) [Example 9a, (+)-Ethyl[2-hydroxy-2-[1-(3-fluoro)phenyl-2-methyl-5-(4-methylsulphonyl)phenyl-1H-pyrrol-3-yl]]acetate], for which the “COX-1/COX-2 Selectivity Index (IC50 ratio)” value in assay [2] is reported as above 1300.

In assay [1] (Table 11, Formula I-e), `Cc1c(CCOC(=O)c2ccccc2F)cc(-c2ccc(S(C)(=O)=O)cc2)n1-c1ccc(F)cc1` [Example 32, 2-(1-(4-fluorophenyl)-2-methyl-5-(4-methylsulphonyl)phenyl-1H-pyrrol-3-yl)ethyl 2-fluorobenzoate] returned an IC50 above 100 µM. The “COX-2 % of inhibition at 1.10^−5 M” value in assay [2] is 64%.

`CCCOCCc1cc(-c2ccc(S(C)(=O)=O)cc2)n(-c2ccccc2)c1C` [Example 22, [2-Methyl-5-(4-methylsulphonyl)phenyl-1-phenyl-3-(2-n-propyloxyethyl)]-1H-pyrrole]: the figures for the inhibition in vivo at 20 mg/kg in assay [3] (setting [5]), in assay [3] (setting [6]) and in assay [4] were 88%, 94% and 43%, respectively.

In assay [1] (Table 11, Formula I-e), `Cc1c(CCOC(=O)c2ccc(F)cc2)cc(-c2ccc(S(C)(=O)=O)cc2)n1-c1ccc(F)cc1` [Example 33, 2-(1-(4-fluorophenyl)-2-methyl-5-(4-methylsulphonyl)phenyl-1H-pyrrol-3-yl)ethyl 4-fluorobenzoate] displayed a half-maximal inhibitory concentration (IC50) above 100 µM. For the same compound, the “COX-2 % of inhibition at 1.10^−5 M” value in assay [2] was found to be 69%.

`COCCc1cc(-c2ccc(S(C)(=O)=O)cc2)n(-c2ccc(F)cc2)c1C` [Example 23, [1-(4-Fluoro)phenyl-2-methyl-5-(4-methylsulphonyl)phenyl-3-(2-methoxyethyl)]-1H-pyrrole]: the IC50 in assay [1] (Table 9, Formula I-d) is above 100 µM; in assay [2] (Table 9, Formula I-d), 0.018 µM.

As to `CCOCCc1cc(-c2ccc(S(C)(=O)=O)cc2)n(-c2ccccc2)c1C` [Example 21, [3-(2-Ethoxyethyl)-2-methyl-5-(4-methylsulphonyl)phenyl-1-phenyl]-1H-pyrrole], the inhibition in vivo at 20 mg/kg in assay [3] (setting [5]) was determined as 96%; in assay [3] (setting [6]) it was 72%; in assay [4], 45%.
